Results from patent US7829114B2, “Capsules containing aqueous fill compositions stabilized with derivatized cyclodextrin” (CyDex Pharmaceuticals, Inc., priority 2002, dated 2010).
Like-named read-outs stand apart in the source and are kept apart here.

How the values were obtained:
[1] = Shell stability on exposure to aqueous fill composition (half-shell integrity test, H.S.I.T.); assay type: physicochemical; details: for content in fill composition for an HSIT rating of at least 3: PVP and water fill, hydrophilic fill-grade BANNER SGC
Text: Agitation continued until all the SAE-CD dissolved.

[2] = H.S.I.T. with SAE-CD, PVP and water fill compositions; assay type: physicochemical
Experimental: FIGS. 10a-10i depict ternary graphs correlating the concentration of SAE-CD, water and PVP in a fill composition to the H.S.I.T. rating of a soft shell capsule exposed to the fill composition. Aqueous fill solutions comprising differing amounts of PVP, SAE-CD and water were prepared. The stability tests were conducted as described below. The capsules described herein were used: SHIONOGI HGC (hard gelatin capsule) (FIG. 10A), […] HPMC hard shell capsule (FIG. 10b), SHIONOGI HPMC hard shell capsule (FIG. 10C), […] HGC (FIG. 10D), VEGAGEL hard shell capsule (FIG. 10E), hydrophilic fill-grade CARDINAL SGC (soft gelatin capsule) (FIG. 10f), lipophilic fill-grade CARDINAL SGC (FIG. 10g), hydrophilic fill-grade BANNER SGC (FIG. 10h), and lipophilic fill-grade BANNER SGC (FIG. 10i). No other shell-stabilizing material(s) was (were) included in the fill compositions evaluated. The results varied according to the capsule used. Stabilized aqueous fill composition-containing capsule formulations can be achieved with each capsule if one or more of the following fill compositions detailed below are used. • 1. Water comprises ≧55% of the fill composition, and the combination of SAE-CD, PVP, one or more optional excipients and one or more optional active agents comprises ≧45% of the fill composition; wherein SAE-CD can comprise up to 90% (85%, 83%, or 80%) of the weight of the fill composition, and PVP can comprise less than 90%, respectively, of the weight of the fill composition, provided that the fill composition comprises >≧35% PVP when SAE-CD comprises […]; ≦15% of the weight of the fill composition, and wherein both PVP (preferably water soluble or water swellable) and SAE-CD are present. • 2. Water comprises ≦45% of the fill composition, and the combination of SAE-CD, PVP, one or more optional excipients and one or more optional active agents comprises ≧55% of the fill composition; wherein SAE-CD can comprise up to 90% (85%, 83%, or 80%) of the weight of the fill composition, and PVP can comprise less than 90%, respectively, of the weight of the fill composition, provided that the fill composition comprises ≧35% PVP when SAE-CD comprises ≦20% of the weight of the fill composition, and wherein both PVP (preferably water soluble or water swellable) and SAE-CD are present. • 3. […]

[3] = 40% wt. cyclodextrin derivative in water, HFB
[4] = 50% wt. cyclodextrin derivative in water, HFB
[5] = 55% wt. cyclodextrin derivative in water, HFB
[6] = 60% wt. cyclodextrin derivative in water, HFB
[7] = SHIONOGI HPMC hard shell capsule

sulfobutyl ether cyclodextrin [SAE-CD]
content in fill composition for a stabilized capsule formulation [1]: ≧12%
Increase in shell size [1, 3]: 2× × original
Observations [1, 3]: shape intact
Time for failure [1, 3]: 3 days
Increase in shell size [1, 4]: 2.5 × original
Observations [1, 4]: Slightly
Time for failure [1, 4]: 16 days
Increase in shell size [1, 5]: 2 × original
Observations [1, 5]: Deformed
Time for failure [1, 5]: 10 days
Increase in shell size [1, 6]: no change
Observations [1, 6]: No change
Time for failure [1, 6]: ≧21 days
content in fill composition for an HSIT rating of at least 3 ([1]; SAE-CD): ≧6%
content in fill composition for an HSIT rating of at least 3 ([2]; SHIONOGI HGC): ≧6%
content in fill composition for an HSIT rating of at least 3 [2, 7]: ≧6%

O [Water]
content in fill composition for a stabilized capsule formulation ([1]; SAE-CD, PEG and water fill, HFB): ≦48%
content in fill composition for an HSIT rating of at least 3 ([1]; SAE-CD): ≦54%
content in fill composition for an HSIT rating of at least 3 ([2]; SHIONOGI HGC): ≦54%
content in fill composition for an HSIT rating of at least 3 [2, 7]: ≦60%
